# In US6939863B2, “Prevention of atherosclerosis and restenosis” (priority 2002, dated 2005):
# Entries after “also recorded” stand apart in the source; their conditions may differ. Read-outs that look alike come from different tables or passages of the source.
# Assays:
# [1] = system: rat vascular smooth muscle cells
# [2] = system: human endothelial cells from umbilical veins; assay: cells
# Procedure: (§1) Rat vascular smooth muscle cells (VSMCs) (passages 5-10) were prepared from Sprague-Dawley rats and cultured in Dulbecco's modified Eagle's medium (DMEM) supplemented with 10% fetal bovine serum (FBS) as previously described (Kirschenlohr et al, in “Human Cell Culture Protocols”, New Jersey, Humana Press Inc, 1996, pp. 318-335). Human endothelial cells from umbilical veins were prepared as described (Morgan, in “Human Cell Culture Protocols”, New Jersey, Humana Press Inc, 1996, pp. 101-152)
# (§2) Rat vascular smooth muscle cells and human endothelial cells were plated at a density of 10,000 cells per square centimeter in 24-well plates. After 24 hours, cells at 70-80% confluency were treated with propylthiouracil dissolved in 100% dimethylsulfoxide (DMSO) at final concentrations of from 0.05 millimolar to 15 millimolar, or with methimazole (Sigma, St. Louis, Mo.) dissolved in water at the concentrations of from 0.01 millimolar to 1 millimolar for 24-72 hours. Cell numbers were visually counted using a hemocytometer. For the thymidine incorporation study, cells were deprived of serum for 36 hours and labeled with [methyl-^3H]thymidine at […] per milliliter for 12-24 hours after synchronization. Thymidine incorporation was then measured (Newby and George, 1996, Curr. Opin. Cardiol., 11:547). Effects of propylthiouracil and methimazole on the number of vascular smooth muscle cells and human endothelial cells and thymidine incorporation by vascular smooth muscle cells were each expressed as a percentage of the number and thymidine incorporation of control cells maintained in medium containing 0.1% DMSO as vehicle.
# [3] = system: type I and type III collagen expression in rat vascular smooth muscle cells; details: 5 millimolar
# Procedure: The expression of smooth muscle cell collagen was determined by Northern blot analysis at the RNA level and Western blot analysis on the protein level. Total RNA (10 micrograms) from vascular smooth muscle cells grown in the media containing 0 (Control), 0.5 millimolar, 2.5 millimolar, or 5 millimolar propylthiouracil (PTU) for 24 hours was electrophoresed on a 1% agarose gel. The levels of pro-α1(I) collagen mRNA were measured as radioactivities, normalized relative to the density of 18S and 28S rRNA (FIG. 12, Panel A).
# The effects of lower physiological concentrations of propylthiouracil on the expression of type I and type III collagen genes was also studied at the RNA level. Northern blot analysis was carried out on total RNA from rat vascular smooth muscle cells grown for 24 to 72 hours (1 to 3 days) in media containing 0 (Control, C), 0.38 millimolar, 0.5 millimolar, or 0.76 millimolar propylthiouracil. Type I collagen (FIG. 13, Panel A) and type III collagen (FIG. 13, Panel B) mRNA radioactivity levels were normalized relative to 18S and 28S rRNA (FIG. 13, Panel C).
# Type I collagen (FIG. 14, Panel A) and type III collagen (FIG. 14, Panel B) protein levels were normalized relative to the protein levels of tubulin. […]
# [4] = summary table; cited from earlier work
# [5] = Rabbit 12-week study: body weight, chow and water consumption, serum lipids, thyroid hormone index, blood counts, arterial pressure, heart rate; details: for Weight at sacrifice / Chow consumption: 12 weeks; for Chow consumption / Water consumption: mean ± SD
# [6] = system: rat vascular smooth muscle cells; assay: Vascular smooth muscle cell proliferation (cell number); assay type: cell-based; details: for Cell number of VSMCs: 24 hours
# Procedure: as §1, §2
# restenosis = details: summary table; cited from earlier work; also: key: '+' represents the ability; a '−' represents the inability of conversion from a non-contracile phenotype to a contractile phenotype in an in vitro condition; A '↓' represents decrease; a '?' represents no data is available
# [7] = system: rat vascular smooth muscle cells; details: summary table, propylthiouracil; non-contractile to contractile phenotype in vitro
# [8] = system: rat vascular smooth muscle cells; details: for Pyknosis or karyorhexis (features of apoptosis), propidium iodide-stained cells: 5 millimolar, 24 hours
# [9] = system: rat vascular smooth muscle cells; assay: [methyl-3H]thymidine incorporation into VSMCs; assay type: cell-based
# Procedure: as §1, §2
# [10] = propylthiouracil-treated groups
# For Anti-inflammation in this document: key: '+' represents the ability; a '−' represents the inability of conversion from a non-contracile phenotype to a contractile phenotype in an in vitro condition; A '↓' represents decrease; a '?' represents no data is available.
smiles,measurement,setting,value
"CCCc1cc(=O)[nH]c(=S)[nH]1 [Propylthiouracil, 6-n-propyl-2-thiouracil]",Cytotoxic effect on VSMCs by trypan blue exclusion test,[1]; 24 hours,no cytotoxic effect
same,Number of cells that excluded trypan blue,"[1]; 24 hours treatment, n=5",94.4±0.4%
same,Concentration at which significant inhibition of growth of vascular endothelial cells was observed,[2]; 24 hours,≥ 10 millimolar
same,Growth of vascular endothelial cells,"[2]; 24 hours, concentrations of up to 7.5 millimolar",did not significantly inhibit
same,"Difference in inhibitory effect, vascular endothelial cells less than vascular smooth muscle cells",[2]; FIG. 7,20-30%
same,IC50,"[2]; Homo sapiens, Endothelial cell, 24 h, read-out: IC50 for endothelial cells (proliferation)",12 mM
same,Endothelial cellular function,"[2]; summary table, propylthiouracil",+
same,Staining density for type I collagen (immunocytochemistry),[3],decrease
same,Staining density for type III collagen (immunocytochemistry),[3],decrease
same,Anti-inflammation,[4],+
same,Serum (milligrams percent) at sacrifice,[5]; 2% cholesterol diet,43 ± 33 milligrams percent
same,Serum CHO at sacrifice,[5]; 2% cholesterol diet,1965 ± 156 milligrams percent
same,Serum HDL at sacrifice,[5]; 2% cholesterol diet,67 ± 24 milligrams percent
same,Serum LDL at sacrifice,[5]; 2% cholesterol diet,1856 ± 152 milligrams percent
same,Serum TG at sacrifice,[5]; 2% cholesterol diet,213 ± 167 milligrams percent
same,Weight at sacrifice,[5]; 2% cholesterol diet,3.06 ± 0.17 kilograms
same,Chow consumption,[5]; 2% cholesterol diet,123 ± 18 grams per day
same,Water consumption,[5]; 2% cholesterol diet,201 ± 41 milliliters per day
same,Body weight at the end of treatment,"[5]; PTU and CHO+PTU groups, despite decreased water and chow intake",did not have a reduction in the body weight
same,Serum thyroxine (T4),[5]; after 4 weeks of treatment,decreased-to unmeasurable levels
same,Serum triiodothyronine (T3),[5]; after 4 weeks of treatment,decreased-to unmeasurable levels; also recorded: decreased to unmeasurable levels
same,Thyrotropin (TSH) level,[5]; hypothyroid groups,increase
same,Arterial pressures and heart rates,[5]; hypothyroid propylthiouracil-treated groups,did not have their arterial pressures and heart rates altered
same,Serum (milligrams percent) at sacrifice,[5]; normal chow,32 ± 8 milligrams percent
same,Serum CHO at sacrifice,[5]; normal chow,154 ± 22 milligrams percent
same,Serum HDL at sacrifice,[5]; normal chow,43 ± 30 milligrams percent
same,Serum LDL at sacrifice,[5]; normal chow,82 ± 32 milligrams percent
same,Serum TG at sacrifice,[5]; normal chow,175 ± 50 milligrams percent
same,Weight at sacrifice,[5]; normal chow,3.08 ± 0.17 kilograms
same,Chow consumption,[5]; normal chow,113 ± 13 grams per day
same,Water consumption,[5]; normal chow,196 ± 17 milliliters per day
same,"Serum cholesterol, triglyceride, LDL, and VLDL levels compared with the control group","[5]; normal chow, propylthiouracil only (Group 2)",slight increase
same,Agranulocytosis,[5]; [10],did not occur
same,Blood counts,[5]; [10],remained essentially unchanged
same,Cell number of VSMCs,[6]; 0.05 millimolar,103 % of control
same,Proliferation of VSMCs at low concentration,"[6]; 0.05 millimolar, 24 hours treatment",not inhibited
same,"Proliferation of VSMCs at low concentration, long-term","[6]; 0.05 millimolar, exposed for more than 2 days",antiproliferative effect was indeed observed
same,Cell number of VSMCs,[6]; 0.5 millimolar,103 % of control
same,Cell number of VSMCs,[6]; 2.5 millimolar,76 % of control
same,Cell number of VSMCs,[6]; 5 millimolar,57 % of control
same,IC50,"[6]; Rattus norvegicus, VSMC, 24 h, read-out: IC50 for VSMCs (proliferation)",5.8 mM
same,Inhibition of growth/proliferation of VSMCs,"[6]; concentration-dependent, PTU 0.05-5 millimolar, methimazole 0.01-1 millimolar",significantly inhibited
same,"Effect on animal models of restenosis, Rat",restenosis,+
same,Phenotype change,[7],+
same,"Pyknosis or karyorhexis (features of apoptosis), propidium iodide-stained cells",[8],did not cause any pyknosis or karyorhexis
same,"Pyknosis or karyorhexis (features of apoptosis), propidium iodide-stained cells",[8]; listed as propylthiouracil,did not cause pyknosis or karyorhexis
same,TUNEL-positive cells in VSMCs,[8]; propylthiouracil-treated VSMCs,absent
same,Thymidine incorporation into VSMCs,[9]; 0.05 millimolar,99 % of control
same,Thymidine incorporation into VSMCs,[9]; 0.5 millimolar,93 % of control
same,Thymidine incorporation into VSMCs,[9]; 2.5 millimolar,75 % of control
same,Thymidine incorporation into VSMCs,[9]; 5 millimolar,38 % of control
same,Inhibition of thymidine incorporation into VSMCs,[9]; concentration-dependent,significantly inhibited
